Laboratory results published in patent publication US20120065123A1, “Synthetic Antibodies” (priority 2009, published 2012).
Bridges are numbered along the chain shown (N, C = ends). Roman numbers before positions name the chains, in order. Where no end group is shown, it is not given here. The star is where a group is joined. StBu = CC(C)(C)S*

Legend:
pooled human transferrin = molecular target: T1, pooled human transferrin (Homo sapiens, UniProt P02787); assay: High throughput SPR screening of peptides (Biacore A-100); assay type: binding; settings: purified peptide, several concentrations; read-out: KD with respect to transferrin
T1 construct: purchased Sigma
Procedure: Peptide affinity element candidates were screened against target proteins immobilized on the SPR surface. Each target protein was modified with biotin using the following procedure: NHS-LC-LC-Biotin (Pierce Biotechnology) was re-suspended in DMSO at a concentration of 7.13 mM. Each protein was prepared in 100 mM PBS pH 7.5 at a concentration of ˜50 μM. NHS-LC-LC-Biotin was then added to the protein solution at a 3:1 or 5:1 molar ratio. The reaction was performed for 2 hours at room temperature and the protein sample was analyzed by MALDI mass spectrometry to determine the number of biotin molecules added per molecule of protein. Excess NHS-LC-LC-Biotin was removed using a 3 kDa spin filter. The target proteins for which data is shown in this example were pooled human transferrin (Sigma) and purified bovine ubiquitin.
A Biacore A-100 Surface Plasmon Resonance (SPR) system was used to measure the binding response of each peptide to several different target proteins immobilized on a gold surface. […] Each biotinylated protein was injected over a single spot and the amount of protein captured was measured. […]
Data analysis was performed using the A-100 Evaluation software package that analyzes and filters the data using a variety of measures of quality control for each sensorgram. […] In this manner a relative measure of the specificity of binding for each peptide was determined. […]

Transferrin [1] = molecular target: T2, Transferrin (Homo sapiens, UniProt P02787); assay: Peptide microarray ranking, labeled transferrin with E. coli lysate competitor; assay type: binding
Procedure: Several polypeptides were identified as candidate affinity elements for synbodies against an arbitrarily chosen protein target, transferrin, by incubating transferrin on the polypeptide microarray in the presence of E. coli lysate competitor. Transferrin was randomly direct-labeled at free amines with Alexa™ 555, and E. coli lysate was randomly direct-labeled at free amines with Alexa™ 647. Three replicate arrays were passivized by applying a mixture of BSA and mercaptohexanol for one hour. The arrays were blocked with unlabelled E. coli lysate for one hour, then washed three times with TBST (0.05% Tween) followed by three times with water. A mixture of labeled transferrin and labeled E. coli lysate was applied to the three replicate arrays and incubated for three hours. The arrays were again washed three times with TBST (0.05% Tween) followed by three times with water, and scanned at 555 nm and 647 nm using an array reader. Polypeptides were ranked as candidates for inclusion as affinity elements of synbodies by computing a score for each polypeptide equal to the mean raw 555 nm intensity over the six replicate features, squared, divided by the mean raw 647 nm intensity over the six replicate features. This simple scoring function tends to favor candidate polypeptides that bind at least moderate affinity, since otherwise the 555 nm intensity would be relatively lower, and that are relatively specific, since otherwise the 647 nm intensity would be relatively higher and contribute to a relatively lower score. Many variations of this ranking and identification process can be used, such as, by way of non-limiting examples, two-color comparisons against other competitors; comparisons with data taken in separate experiments with respect to other targets; and use of scoring functions taking into account other factors, employing other functional relationships, and/or involving statistical analysis and/or preprocessing of data and/or correcting for background fluorescence and/or other factors affecting the accuracy of the measured intensities. Ten polypeptides (Table 1) were identified for further evaluation for use as affinity elements in synbodies by choosing the polypeptides having the highest score (one polypeptide was rejected as difficult to synthesize, so the polypeptides chosen were ten of those having the eleven highest scores).
After preparation of the array in accordance with the methods previously described in Example 2, the array was washed one time for five minutes in 7.33% acetonitrile, 37% isopropanol, 0.55% trifluoroacetic acid, and 55% water. Alexa 555 labeled target protein transferrin was applied, together with Alexa 647 labeled E. coli lysate competitor, to the prewashed array and to an identical array without organic prewash. […] 5,010 on the array without organic prewash, but ranked no. 9601 on the prewashed array. Conversely, peptide TRF-21, shown by SPR analysis to be a relatively strong binder of transferrin, rose in rank from 84 on the non-prewashed array to rank no. 5 on the prewashed array.

Transferrin [2] = molecular target: T2, Transferrin; assay: SPR analysis of peptide pairs for binding to distinct sites on target; settings: peptides applied in 1:1 mixtures in pairs
Description: The transferrin target was immobilized on a Biacore T100 SPR chip, and candidate polypeptides were applied in 1:1 mixtures in pairs and response data obtained, in accordance with the methods described in Example 4 above. As illustrated in FIGS. 12A-D, upon flowing candidate polypeptides over the immobilized target, ideally one polypeptide applied alone would bind to a first binding site on the target and produce a first characteristic SPR response level (FIG. 12A), the other polypeptide would bind to a second, distinct binding site on the target, producing a second characteristic response level (FIG. 12B), and a mixture of the two polypeptides together (at the same concentrations as before) would produce a response level approximating the sum of the response levels produced by each polypeptide alone, as the polypeptides bind to distinct binding sites (FIG. 12C).

Transferrin [3] = molecular target: T2, Transferrin; assay: SPR solution phase KD of candidate affinity elements, transferrin immobilized (Biacore T100); assay type: binding; settings: steady-state response, 25° C., PBST
Procedure: Transferrin 25 μg/ml in immobilization buffer selected for correct pH was then applied 302 at a flow rate of 5 to 10 μl/min for a contact time of about 5 to 10 minutes, allowing the amine functionality on the transferrin 308 to displace the activated NHS ester and bond to the surface via an amide bond. Finally, ethylene diamine (1M ethylene diamine-HCl at pH 8.5) was applied 304 at a flow rate of 5 to 10 μl/min for a contact time of about 6 to 7 minutes to deactivate any remaining reactive groups on the dextran chip surface. Flow rates and contact times are adjusted as necessary to provide the surface concentration of target desired for the intended application, and may vary by target. In general, for evaluating whether binding occurs, it is preferable to immobilize a relatively large quantity of target, and higher flow rates and/or longer contact times may be used. For determining kinetics, it is preferable to limit the amount of target immobilized so as to minimize rebinding and avidity effects, and lower flow rates and/or contact times may be used.
Candidate affinity elements for the transferrin synbody TRF19, TRF21, TRF23, TRF24, TRF25, and TRF26 were individually evaluated for solution phase KD with respect to transferrin by SPR analysis. Because the off rates for these polypeptides were very high, KD values were estimated by measuring steady-state response for at least five concentrations in a two-fold dilution series, each concentration tested in duplicate. For each experiment, response data were processed using a reference surface to correct for bulk refractive index changes and any non-specific binding. Data were also double referenced using responses from blank running buffer injections. Each experiment was conducted at 25° C. using PBST (0.01M Phosphate Buffered Saline, 0.138M NaCl, 0.0027M KCl, 0.05% surfactant Tween20, pH 7.4) as the running buffer on a Biacore T100 instrument. Analytes were injected for 60 s at a flow rate of 30 μl/min. The antigen surfaces were regenerated with 30 s consecutive pulses of NaOH/NaCl (50 mM NaOH in 1M NaCl) and Glycine (10 mM glycine-HCl, pH 2.5).

[4] = tested on: 8,000 human proteins (GST fusion); assay: Protein microarray screen (Invitrogen Protoarray Human Protein Microarray, 8,000 features); assay type: binding; settings: fluorescence intensity
Procedure: Two biotinylated anti-TRF synbodies (SYN23-26 and SYN 21-22) were applied to a protein microarray having 8,000 features (Invitrogen Protoarray Human Protein Microarray v. 4.0 for immune response biomarker profiling), each feature comprising a distinct human protein (GST fusion) adsorbed to a nitrocellulose coated slide. Application of the synbodies to the microarray was performed in accordance with manufacturer instructions: (see ProtoArray Human Protein Microarray, Invitrogen, Catalog no. PAH052401, Version B, 15 Dec. 2006, 25-0970, Users Manual.) After blocking the array with 1% BSA/PBS/0.1% Tween for 1 hour at 4C with gentle shaking, 120 μl of probing buffer (1×PBS, 5 mM mgCl2, 0.5 mM DTT, 0.05% Triton X-100, 5% glycerol, 1% BSA) with synbody was applied to the array. The prescribed cover slip was placed over the array and adjusted to remove air bubbles. The array was incubated in a 50 ml conical tube, printed side up, for 1.5 hours at 4C without shaking. The array was then removed from the conical tube inserted diagonally into the array chamber, kept on ice. 8 ml probing buffer was added to the chamber wall. The cover slip was removed and the array was incubated in probing buffer for 1 minute on ice. […] The array was dried in the dark for 60 minutes at room temperature, after which it was scanned using a fluorescent microarray scanner and data was taken and analyzed.

[5] = molecular target: Tumor Necrosis Factor-alpha (TNF-α) (Homo sapiens, UniProt P01375); assay: Chromatographic affinity screening on protein-coupled pipette tips with MALDI readout; assay type: binding; settings: 500 nM each synbody in E. Coli Lysate
Procedure: The target proteins, Transferrin (TRF) and Tumor Necrosis Factor-alpha (TNF-α), were each covalently attached to pipette tips (one protein per pipette tip) containing carboxymethyl dextran matrix (Intrinsic Bioprobes, Tempe, Ariz.) using standard amine coupling chemistry. The unmodified tips were first washed with 0.5 M HCl followed by acetone. Each tip was activated using a 50 mg/mL solution of […] (CDI) in N-methyl-pyrolidone (NMP). Each tip was washed with NMP to remove excess CDI. Each protein was prepared as a 50 μg/mL solution in 100 mM sodium acetate pH 5.0 and cycled through a CDI activated tip for 30 minutes. Un-reacted CDI in the tip was then quenched with the addition of 1.5 M ethanolamine pH 8.5 and then washed extensively with HBS-N buffer. The protein-coupled tips were then stored in HBS-N buffer at 4° C. Negative control tips were prepared in the same manner except that no protein was added to the sodium acetate solution during the protein coupling step.
A library of 14 candidate synbodies (Table 9) was prepared by making 12 μM stock solutions in 1× phosphate buffered saline (PBS) of each HPLC purified synbody and […] of each stock solution was added to 600 μL of E. Coli Lysate that had been treated with a protease inhibitor. Thus the final concentration of each synbody was 500 nM.
A negative control pipette tip (blank tip), a TRF tip, and a TNF-α tip, were washed with 0.1% sodium dodecyl sulfate (SDS) to remove any non-covalently bound protein and then washed with HBS buffer. The tips were then incubated for 15 minutes in 150 μL of the synbody library. Each tip was then washed 5 times in 150 μL of HBS-N. This step was then repeated and each tip was washed 5 times in 150 μL of 0.25 M NaCl. Each tip was then washed 5 times in 150 μL of Milli-Q water and this step was repeated. […]
Each elution sample was spotted onto a MALDI plate and analyzed in reflectron mode on a Bruker Daltonics UltraFlex III TOF/TOF MALDI Mass Spectrometer.

TNF-α = TNF-α (Homo sapiens, UniProt P01375); assay: SPR verification of candidate TNF-α binding synbodies (Biacore T-100); settings: 1.25 μM to 9.8 nM
Procedure: Candidate TNF-α binding synbodies were screened by surface plasmon resonance (SPR) on a Biacore T-100 SPR instrument to verify binding for TNF-α. A CM5 chip was activated using standard amine coupling chemistry and TNF-α was immobilized. Each synbody was prepared in HBS-N buffer with excess carboxymethyl dextran added to the running buffer to minimize non-specific binding to the chip surface. A concentration series of each synbody was prepared where the concentrations ranged from 1.25 μM to 9.8 nM.

T2 sequence (P02787 20-698): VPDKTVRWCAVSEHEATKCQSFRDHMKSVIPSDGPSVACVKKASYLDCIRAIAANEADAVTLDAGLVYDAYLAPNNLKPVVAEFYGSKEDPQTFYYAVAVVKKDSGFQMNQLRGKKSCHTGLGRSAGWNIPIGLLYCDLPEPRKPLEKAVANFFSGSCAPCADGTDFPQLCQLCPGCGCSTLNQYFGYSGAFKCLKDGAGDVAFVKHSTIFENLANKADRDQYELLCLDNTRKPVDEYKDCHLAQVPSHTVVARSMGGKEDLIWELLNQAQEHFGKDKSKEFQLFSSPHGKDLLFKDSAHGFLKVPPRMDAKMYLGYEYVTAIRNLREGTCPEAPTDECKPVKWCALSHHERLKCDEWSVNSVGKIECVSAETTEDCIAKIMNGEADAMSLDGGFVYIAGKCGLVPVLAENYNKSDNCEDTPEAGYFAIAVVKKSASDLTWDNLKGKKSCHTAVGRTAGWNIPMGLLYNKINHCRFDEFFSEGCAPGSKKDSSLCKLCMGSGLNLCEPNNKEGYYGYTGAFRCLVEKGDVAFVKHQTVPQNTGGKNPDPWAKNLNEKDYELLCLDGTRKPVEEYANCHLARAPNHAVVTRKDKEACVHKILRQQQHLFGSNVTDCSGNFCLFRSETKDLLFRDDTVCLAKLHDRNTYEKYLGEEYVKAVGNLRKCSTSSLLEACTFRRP
Chain of Tumor Necrosis Factor-alpha (TNF-α) (P01375 77-233 limits assumed, species assumed): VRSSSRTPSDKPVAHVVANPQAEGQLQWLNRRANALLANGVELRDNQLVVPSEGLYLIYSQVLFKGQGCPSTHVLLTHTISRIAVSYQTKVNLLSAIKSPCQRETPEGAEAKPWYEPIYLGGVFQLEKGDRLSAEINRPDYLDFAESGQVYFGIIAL
Chain of TNF-α (P01375 77-233 limits assumed, species assumed): as above
T1 sequence (P02787 20-698): as the sequence (P02787 20-698) above

ARDLLIQKNSGQDVDHRGSC [TRF101]
Kd (pooled human transferrin): 78.9 ± 27 µM

FRGWAHIFFGPHVIYRGGSC [TRF23]
Rank -- prewash (Transferrin [1]; array with organic prewash): 2091 | Rank - non-prewash (Transferrin [1]; array without organic prewash): 2722 | binding to distinct sites on transferrin (Transferrin [2]): bind distinct sites on transferrin | Kd (Transferrin [3]): ~50 µM

I: AHKVVPQRQIRHAYNRYGSGKC / II: FRGWAHIFFGPHVIYRGGSG (amide I:21-II:C) [SYN23-26]
highest affinity target from a library of 8,000 [4]: PCCA

TNF1-TNF4-KC-stBu: lysine-linked synbody (peptide 1 FMNYPIKVPILVVPIGRGSGKC(StBu); peptide 2 MKSIIPMSVAQHQGPIKGSG; not fully specified)
MALDI peak in TNF-α tip elution (retention by target) [5]: no peak was observed | binding to TNF-α (sensorgrams) (TNF-α): no binding

TNF1-TNF10-KC-stBu: lysine-linked synbody (peptide 1 FRGWAHIFFGPHVIYRGGSGKC(StBu); peptide 2 MKSIIPMSVAQHQGPIKGSG; not fully specified)
MALDI peak in TNF-α tip elution (retention by target) [5]: showed a peak | binding to TNF-α (sensorgrams) (TNF-α): relatively strong binding kinetics
